Experimental data taken from PubChem BioAssay (NCI).
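Exposure lasted 48 hours, with cells grown in 96-well plates and compounds tested at five concentrations. GI50 marks 50% less growth. The concentration for full growth arrest is given as TGI.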

Experiments:
Assay in all cases: NCI tumour cell line growth inhibition, 48 h
786-0 renal = test system: 786-0 renal
A498 renal = test system: A498 renal
A549 NSCLC = test system: A549 NSCLC
ACHN renal = test system: ACHN renal
BT-549 breast = test system: BT-549 breast
CAKI-1 renal = test system: CAKI-1 renal
CCRF-CEM leukemia = test system: CCRF-CEM leukemia
COLO 205 colon = test system: COLO 205 colon
DU-145 prostate = test system: DU-145 prostate
EKVX NSCLC = test system: EKVX NSCLC
HCC-2998 colon = test system: HCC-2998 colon
HCT-116 colon = test system: HCT-116 colon
HCT-15 colon = test system: HCT-15 colon
HL-60(TB) leukemia = test system: HL-60(TB) leukemia
HOP-62 NSCLC = test system: HOP-62 NSCLC
HOP-92 NSCLC = test system: HOP-92 NSCLC
HS 578T breast = test system: HS 578T breast
HT29 colon = test system: HT29 colon
IGROV1 ovarian = test system: IGROV1 ovarian
K-562 leukemia = test system: K-562 leukemia
KM12 colon = test system: KM12 colon
LOX IMVI melanoma = test system: LOX IMVI melanoma
M14 melanoma = test system: M14 melanoma
MALME-3M melanoma = test system: MALME-3M melanoma
MCF7 breast = test system: MCF7 breast
MDA-MB-231 breast = test system: MDA-MB-231 breast
MDA-MB-435 = test system: MDA-MB-435
MOLT-4 leukemia = test system: MOLT-4 leukemia
NCI-H226 lung = test system: NCI-H226 lung
NCI-H23 lung = test system: NCI-H23 lung
NCI-H460 lung = test system: NCI-H460 lung
NCI-H522 lung = test system: NCI-H522 lung
NCI/ADR-RES ovarian = test system: NCI/ADR-RES ovarian
OVCAR-4 ovarian = test system: OVCAR-4 ovarian
OVCAR-5 ovarian = test system: OVCAR-5 ovarian
OVCAR-8 ovarian = test system: OVCAR-8 ovarian
PC-3 prostate = test system: PC-3 prostate
RPMI-8226 leukemia = test system: RPMI-8226 leukemia
RXF 393 renal = test system: RXF 393 renal
SF-268 CNS = test system: SF-268 CNS
SF-295 CNS = test system: SF-295 CNS
SF-539 CNS = test system: SF-539 CNS
SK-MEL-2 melanoma = test system: SK-MEL-2 melanoma
SK-MEL-28 melanoma = test system: SK-MEL-28 melanoma
SK-MEL-5 melanoma = test system: SK-MEL-5 melanoma
SK-OV-3 ovarian = test system: SK-OV-3 ovarian
SN12C renal = test system: SN12C renal
SNB-19 CNS = test system: SNB-19 CNS
SNB-75 CNS = test system: SNB-75 CNS
SR leukemia = test system: SR leukemia
SW-620 colon = test system: SW-620 colon
T-47D breast = test system: T-47D breast
TK-10 renal = test system: TK-10 renal
U251 CNS = test system: U251 CNS
UACC-257 melanoma = test system: UACC-257 melanoma
UACC-62 melanoma = test system: UACC-62 melanoma
UO-31 renal = test system: UO-31 renal

`CNC(=O)c1cc(N2CCc3cc(NC(=O)Nc4ccc(N5CCN(C)CC5)c(C(F)(F)F)c4)ccc32)ccn1` showed a GI50 (786-0 renal) of 2.86 µM, a TGI (786-0 renal) of 6.15 µM and a GI50 (A498 renal) of 7.9 µM. For the same compound, the TGI (A498 renal) was > 25 µM, the GI50 (A549 NSCLC) was 3.94 µM and the TGI (A549 NSCLC) was 7.99 µM. For the same compound, the GI50 (ACHN renal) was 3.92 µM, the TGI (ACHN renal) was 7.31 µM and the GI50 (BT-549 breast) was 4.59 µM. For the same compound, the TGI (BT-549 breast) was 14.4 µM, the GI50 (CAKI-1 renal) was 4.43 µM and the TGI (CAKI-1 renal) was 9.07 µM. For the same compound, the GI50 (CCRF-CEM leukemia) was 1.17 µM, the TGI (CCRF-CEM leukemia) was 21.6 µM and the GI50 (COLO 205 colon) was 4.54 µM. For the same compound, the TGI (COLO 205 colon) was 8.71 µM, the GI50 (DU-145 prostate) was 4.22 µM and the TGI (DU-145 prostate) was 8.12 µM. It also gave a GI50 (EKVX NSCLC) of 3.95 µM, a TGI (EKVX NSCLC) of 7.73 µM and a GI50 (HCC-2998 colon) of 4.13 µM. It also gave a TGI (HCC-2998 colon) of 7.83 µM, a GI50 (HCT-116 colon) of 2.22 µM and a TGI (HCT-116 colon) of 5.35 µM. It also gave a GI50 (HCT-15 colon) of 0.879 µM, a TGI (HCT-15 colon) of 3.59 µM and a GI50 (HL-60(TB) leukemia) of 4.28 µM. The TGI (HL-60(TB) leukemia) was 11.9 µM, the GI50 (HOP-62 NSCLC) was 4.02 µM and the TGI (HOP-62 NSCLC) was 8.34 µM. For the same compound, the GI50 (HOP-92 NSCLC) was 21.4 µM, the TGI (HOP-92 NSCLC) was > 25 µM and the GI50 (HS 578T breast) was 3.49 µM. For the same compound, the TGI (HS 578T breast) was 9.66 µM, the GI50 (HT29 colon) was 1.31 µM and the TGI (HT29 colon) was 4.91 µM. It also gave a GI50 (IGROV1 ovarian) of 4.6 µM, a TGI (IGROV1 ovarian) of 9.53 µM and a GI50 (K-562 leukemia) of 0.69 µM. The TGI (K-562 leukemia) was 2.19 µM, the GI50 (KM12 colon) was 0.862 µM and the TGI (KM12 colon) was 4.24 µM. For the same compound, the GI50 (LOX IMVI melanoma) was 3.44 µM, the TGI (LOX IMVI melanoma) was 7.14 µM and the GI50 (M14 melanoma) was 3.34 µM. The TGI (M14 melanoma) was 6.67 µM, the GI50 (MALME-3M melanoma) was 3.72 µM and the TGI (MALME-3M melanoma) was 7.52 µM. The GI50 (MCF7 breast) was 2.96 µM, the TGI (MCF7 breast) was 7.39 µM and the GI50 (MDA-MB-231 breast) was 3.48 µM. It also gave a TGI (MDA-MB-231 breast) of 7.83 µM, a GI50 (MDA-MB-435) of 3.99 µM and a TGI (MDA-MB-435) of 7.6 µM. For the same compound, the GI50 (MOLT-4 leukemia) was 1.18 µM, the TGI (MOLT-4 leukemia) was 22 µM and the GI50 (NCI-H226 lung) was > 25 µM. For the same compound, the TGI (NCI-H226 lung) was > 25 µM, the GI50 (NCI-H23 lung) was 3.73 µM and the TGI (NCI-H23 lung) was 8.06 µM. The GI50 (NCI-H460 lung) was 3.78 µM, the TGI (NCI-H460 lung) was 7.68 µM and the GI50 (NCI-H522 lung) was 4.87 µM. The TGI (NCI-H522 lung) was 9.54 µM, the GI50 (NCI/ADR-RES ovarian) was 5.27 µM and the TGI (NCI/ADR-RES ovarian) was 12 µM. The GI50 (OVCAR-4 ovarian) was 3.96 µM, the TGI (OVCAR-4 ovarian) was 8.69 µM and the GI50 (OVCAR-5 ovarian) was 3.76 µM. The TGI (OVCAR-5 ovarian) was 8.4 µM, the GI50 (OVCAR-8 ovarian) was 4.48 µM and the TGI (OVCAR-8 ovarian) was 8.67 µM. It also gave a GI50 (PC-3 prostate) of 4.36 µM, a TGI (PC-3 prostate) of 15.3 µM and a GI50 (RPMI-8226 leukemia) of 0.742 µM. For the same compound, the TGI (RPMI-8226 leukemia) was 2.69 µM, the GI50 (RXF 393 renal) was 0.815 µM and the TGI (RXF 393 renal) was 3.15 µM. It also gave a GI50 (SF-268 CNS) of 4.08 µM, a TGI (SF-268 CNS) of 9.86 µM and a GI50 (SF-295 CNS) of 0.541 µM. It also gave a TGI (SF-295 CNS) of 1.33 µM, a GI50 (SF-539 CNS) of 1.03 µM and a TGI (SF-539 CNS) of 4.15 µM. It also gave a GI50 (SK-MEL-2 melanoma) of 4.56 µM, a TGI (SK-MEL-2 melanoma) of 8.66 µM and a GI50 (SK-MEL-28 melanoma) of 3.7 µM. For the same compound, the TGI (SK-MEL-28 melanoma) was 7.19 µM, the GI50 (SK-MEL-5 melanoma) was 4.32 µM and the TGI (SK-MEL-5 melanoma) was 7.89 µM. The GI50 (SK-OV-3 ovarian) was > 25 µM, the TGI (SK-OV-3 ovarian) was > 25 µM and the GI50 (SN12C renal) was 4.05 µM. It also gave a TGI (SN12C renal) of 8.1 µM, a GI50 (SNB-19 CNS) of 3.6 µM and a TGI (SNB-19 CNS) of 8.12 µM. The GI50 (SNB-75 CNS) was 2.55 µM, the TGI (SNB-75 CNS) was 5.75 µM and the GI50 (SR leukemia) was 0.79 µM. It also gave a TGI (SR leukemia) of 4.43 µM, a GI50 (SW-620 colon) of 0.881 µM and a TGI (SW-620 colon) of 2.87 µM. For the same compound, the GI50 (T-47D breast) was 4.14 µM, the TGI (T-47D breast) was 9.32 µM and the GI50 (TK-10 renal) was 5.42 µM. It also gave a TGI (TK-10 renal) of 11.1 µM, a GI50 (U251 CNS) of 2.45 µM and a TGI (U251 CNS) of 5.75 µM. It also gave a GI50 (UACC-257 melanoma) of 4.31 µM, a TGI (UACC-257 melanoma) of 8.05 µM and a GI50 (UACC-62 melanoma) of 4.48 µM. For the same compound, the TGI (UACC-62 melanoma) was 9.4 µM, the GI50 (UO-31 renal) was 4.22 µM and the TGI (UO-31 renal) was 9.43 µM.
